Data from US10072026B2, “Crystalline form of 3-((1R,3s,5S)-3-((7-((5-methyl-1H-pyrazol-3-yl)amino)-1,6-naphthyridin-5-yl)amino)-8-azabicyclo[3.2.1]octan-8-yl)propanenitrile” (priority 2015, dated 2018).
Like-named read-outs stand apart in the source and are kept apart here.

Key:
[1] = biological target: JAK1 (Homo sapiens (Human), UniProt P23458); assay: LanthaScreen JAK biochemical assay (JAK1)
[2] = system: oxazolone-induced colitis; assay: Mouse model of oxazolone-induced colitis; format: in vivo, BALB/C mice; conditions: mouse, PO, 1, 3, and/or 10 mg/kg BID
Protocol: Assay 7: Mouse Model of Oxazalone-Induced Colitis
Oxazolone-induced colitis is an experimental model that has a histological resemblance to human ulcerative colitis (Heller et al. Immunology, 2002, 17, 629-638). Adult BALB/C mice from Harlan were used in the assay. On day 1, animals were lightly anesthetized with isoflurane and the hairs between the shoulder were carefully removed before oxazolone (4%, 150 μL, 4:1 acetone:olive oil formulation) or vehicle solution was slowly applied for skin sensitization. Seven days after skin sensitization, the mice were fasted overnight, anesthetized with isoflurane inhalation, and a 1 mL syringe equipped with a 3.5-F catheter, filled with oxazolone solution, was inserted carefully about 4 cm into the colon of the mouse. Following insertion, 50 μL of the oxazolone solution (1%, 1:1 ethanol:water formulation) was injected very slowly (over 30 sec using an injection pump) into the colon. The catheter was removed and the mice were held vertically (head down) for 2 min to ensure that the entire oxazolone solution remained inside the colon. Drug treatment (PO, BID or TID) or vehicle was initiated a day prior to the oxazolone intrarectal (IR) challenge. Two-day post oxazolone intrarectal challenge, the Disease Activity Index (DAI) was assessed by treatment-blinded experimenters for each mouse according to the criteria score: stool consistency score (0, normal; 2, loose; 4, diarrhea), gross bleeding score (0, absence; 2, blood tinged; 4, presence), and weight loss score (0, none; 1, 1%-5%; 2, 5%-10%; 3, 10%-20%; 4, more than 20%); DAI=average of (stool consistency score+gross bleeding score+weight loss score).
Selected compounds of the invention were tested in the assay. Efficacy in the model is evidenced by a decrease in DAI score as compared with the score from vehicle treated animals.

[3] = system: IL-13 induced STAT6 phosphorylation in BEAS-2B human lung epithelial cells; assay: AlphaScreen cellular JAK potency assay, BEAS-2B
[4] = system: IL-4 induced STAT6 phosphorylation in THP-1 human monocytic cells; assay: Cellular JAK potency assay, THP-1
[5] = biological target: JAK3 (Homo sapiens (Human), UniProt P52333); assay: LanthaScreen JAK biochemical assay (JAK3)
[6] = biological target: Tyk2 (Homo sapiens (Human), UniProt P29597); assay: LanthaScreen JAK biochemical assay (Tyk2)
Tyk2, sequence (P29597 whole entry): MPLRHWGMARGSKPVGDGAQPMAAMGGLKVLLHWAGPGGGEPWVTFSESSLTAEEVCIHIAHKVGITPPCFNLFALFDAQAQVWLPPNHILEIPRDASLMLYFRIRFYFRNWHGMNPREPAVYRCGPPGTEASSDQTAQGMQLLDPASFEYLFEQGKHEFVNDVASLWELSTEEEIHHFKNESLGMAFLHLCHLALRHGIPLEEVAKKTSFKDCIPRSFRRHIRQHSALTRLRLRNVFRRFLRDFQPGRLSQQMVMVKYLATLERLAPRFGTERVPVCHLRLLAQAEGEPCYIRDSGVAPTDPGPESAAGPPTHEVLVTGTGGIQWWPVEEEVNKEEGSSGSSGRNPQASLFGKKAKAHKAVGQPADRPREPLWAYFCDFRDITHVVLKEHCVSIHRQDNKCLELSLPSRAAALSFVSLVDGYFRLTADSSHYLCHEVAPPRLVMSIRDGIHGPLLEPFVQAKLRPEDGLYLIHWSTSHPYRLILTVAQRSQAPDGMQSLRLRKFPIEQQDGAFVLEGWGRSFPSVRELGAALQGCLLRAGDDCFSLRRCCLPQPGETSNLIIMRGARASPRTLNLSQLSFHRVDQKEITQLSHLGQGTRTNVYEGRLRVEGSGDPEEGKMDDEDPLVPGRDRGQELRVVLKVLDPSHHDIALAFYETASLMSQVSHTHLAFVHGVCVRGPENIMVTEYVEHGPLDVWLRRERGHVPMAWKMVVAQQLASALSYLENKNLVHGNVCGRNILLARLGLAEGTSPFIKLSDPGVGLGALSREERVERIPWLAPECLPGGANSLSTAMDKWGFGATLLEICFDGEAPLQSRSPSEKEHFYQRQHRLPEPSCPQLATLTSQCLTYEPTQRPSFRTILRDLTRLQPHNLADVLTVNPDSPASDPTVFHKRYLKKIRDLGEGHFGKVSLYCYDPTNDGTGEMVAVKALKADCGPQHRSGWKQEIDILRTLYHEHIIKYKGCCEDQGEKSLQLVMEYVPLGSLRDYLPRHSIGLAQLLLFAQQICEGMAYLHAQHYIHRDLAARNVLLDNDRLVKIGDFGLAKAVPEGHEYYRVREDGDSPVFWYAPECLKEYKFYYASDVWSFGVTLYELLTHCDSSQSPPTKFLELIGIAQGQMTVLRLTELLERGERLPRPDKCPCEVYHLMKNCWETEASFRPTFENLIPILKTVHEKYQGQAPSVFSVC

[7] = biological target: JAK2 (Homo sapiens (Human), UniProt O60674); assay: LanthaScreen JAK biochemical assay (JAK2)
JAK2, sequence (O60674 whole entry): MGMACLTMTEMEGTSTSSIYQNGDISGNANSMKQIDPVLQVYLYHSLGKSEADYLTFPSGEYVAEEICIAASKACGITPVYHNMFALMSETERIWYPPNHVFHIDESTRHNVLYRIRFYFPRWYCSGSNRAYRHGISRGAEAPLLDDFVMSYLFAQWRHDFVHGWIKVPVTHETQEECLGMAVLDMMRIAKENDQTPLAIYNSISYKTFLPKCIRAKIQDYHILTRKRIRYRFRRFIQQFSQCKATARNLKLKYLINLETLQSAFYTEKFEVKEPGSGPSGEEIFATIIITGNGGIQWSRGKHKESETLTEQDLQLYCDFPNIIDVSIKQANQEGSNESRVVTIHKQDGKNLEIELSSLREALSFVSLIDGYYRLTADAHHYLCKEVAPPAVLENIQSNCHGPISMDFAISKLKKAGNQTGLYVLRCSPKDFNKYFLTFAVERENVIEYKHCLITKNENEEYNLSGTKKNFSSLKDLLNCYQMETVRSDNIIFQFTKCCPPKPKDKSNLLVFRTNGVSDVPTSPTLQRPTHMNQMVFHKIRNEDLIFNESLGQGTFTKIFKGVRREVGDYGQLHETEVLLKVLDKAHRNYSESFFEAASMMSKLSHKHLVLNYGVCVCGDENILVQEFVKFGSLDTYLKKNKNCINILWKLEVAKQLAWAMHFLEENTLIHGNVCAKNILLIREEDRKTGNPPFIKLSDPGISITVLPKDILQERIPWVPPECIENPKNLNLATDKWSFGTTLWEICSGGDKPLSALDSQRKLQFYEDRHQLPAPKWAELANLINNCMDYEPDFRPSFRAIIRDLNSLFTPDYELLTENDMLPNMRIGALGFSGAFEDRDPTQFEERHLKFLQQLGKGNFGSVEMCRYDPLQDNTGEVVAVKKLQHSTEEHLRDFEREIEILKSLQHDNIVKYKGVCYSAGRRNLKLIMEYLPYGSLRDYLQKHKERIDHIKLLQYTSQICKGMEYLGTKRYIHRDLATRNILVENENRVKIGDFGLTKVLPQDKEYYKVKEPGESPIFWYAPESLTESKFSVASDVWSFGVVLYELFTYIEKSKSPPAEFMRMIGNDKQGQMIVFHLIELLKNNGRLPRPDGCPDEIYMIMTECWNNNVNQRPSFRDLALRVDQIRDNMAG

[8] = read-out: JAK 1 (pKi) (converted)
[9] = Homo sapiens, BEAS-2B, read-out: BEAS2B pIC50 (converted)
[10] = Homo sapiens, THP-1, read-out: THP-1 IL4 pIC50 (converted)
[11] = IL-13 induced STAT6 phosphorylation, BEAS-2B cells
[12] = IL-4 induced STAT6 phosphorylation, THP-1 cells
[13] = BEAS-2B cells, IL-13 induced STAT6 phosphorylation
[14] = THP-1 cells, IL-4 induced STAT6 phosphorylation

JAK1, sequence (P23458 whole entry): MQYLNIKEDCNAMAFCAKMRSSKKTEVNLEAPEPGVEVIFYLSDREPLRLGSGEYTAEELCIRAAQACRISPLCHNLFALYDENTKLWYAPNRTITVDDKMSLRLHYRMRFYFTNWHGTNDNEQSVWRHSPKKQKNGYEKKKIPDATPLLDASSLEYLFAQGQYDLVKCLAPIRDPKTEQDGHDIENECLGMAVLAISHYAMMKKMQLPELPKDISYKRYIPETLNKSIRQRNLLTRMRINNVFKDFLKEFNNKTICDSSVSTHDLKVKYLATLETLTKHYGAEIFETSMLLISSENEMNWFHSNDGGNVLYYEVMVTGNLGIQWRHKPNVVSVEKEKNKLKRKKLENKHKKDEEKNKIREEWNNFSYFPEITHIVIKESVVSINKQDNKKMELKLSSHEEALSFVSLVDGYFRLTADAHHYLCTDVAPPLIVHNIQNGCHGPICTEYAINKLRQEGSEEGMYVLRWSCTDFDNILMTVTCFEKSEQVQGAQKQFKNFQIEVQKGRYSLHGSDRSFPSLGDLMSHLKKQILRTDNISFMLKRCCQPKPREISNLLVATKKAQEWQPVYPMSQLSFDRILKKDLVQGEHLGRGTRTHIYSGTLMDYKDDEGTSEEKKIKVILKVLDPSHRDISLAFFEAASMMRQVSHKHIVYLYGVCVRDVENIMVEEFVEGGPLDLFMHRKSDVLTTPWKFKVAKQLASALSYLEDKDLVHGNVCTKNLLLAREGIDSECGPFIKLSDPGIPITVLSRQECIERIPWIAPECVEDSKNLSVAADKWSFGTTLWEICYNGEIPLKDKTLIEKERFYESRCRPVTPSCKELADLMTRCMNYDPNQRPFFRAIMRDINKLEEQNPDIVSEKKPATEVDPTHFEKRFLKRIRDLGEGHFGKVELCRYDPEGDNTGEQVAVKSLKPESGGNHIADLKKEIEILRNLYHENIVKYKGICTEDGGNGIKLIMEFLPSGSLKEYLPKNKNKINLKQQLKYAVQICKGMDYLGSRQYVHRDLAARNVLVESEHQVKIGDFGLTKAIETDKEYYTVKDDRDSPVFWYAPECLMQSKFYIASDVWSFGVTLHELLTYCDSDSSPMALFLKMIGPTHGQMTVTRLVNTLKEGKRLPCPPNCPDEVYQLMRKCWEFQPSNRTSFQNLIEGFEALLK

Compound | decrease in DAI score as compared with vehicle treated animals [2] | IC50 [4, 10] [nM] | JAK 1 (pKi) [1] | JAK 3 (pKi) [5] | Tyk 2 (pKi) [6] | JAK 2 (pKi) [7] | BEAS2B pIC50 [3, 13] | THP-1 IL4 pIC50 [4, 14] | further results
CCC(=O)N1[C@@H]2CC[C@H]1C[C@H](Nc1nc(Nc3cc(C)[nH]n3)cc3ncccc13)C2 [Example 2-1] | did not exhibit a statistically significant decrease | 31.6 to 200 |  |  |  |  |  |  | Ki [1, 8]: 0.1 to 1 nM; IC50 [3, 9]: 31.6 to 200 nM
Cc1cc(Nc2cc3ncccc3c(N[C@@H]3C[C@H]4CCC[C@@H](C3)N4C(=O)OCC3CC3)n2)n[nH]1 [Example 3-10] |  |  | B (B represents a pKi value between 9 and 10 (Ki between 1 nM and 0.1 nM)) | C (C represents a pKi value between 7 and 9 (Ki between 100 nM and 1 nM)) | B (B represents a pKi value between 9 and 10 (Ki between 1 nM and 0.1 nM)) | B (B represents a pKi value between 9 and 10 (Ki between 1 nM and 0.1 nM)) |  |  | BEAS2B pIC50 [3, 11]: B (B represents a pEC50 value between 6.7 and 7.5 (EC50 between 200 nM and 32 nM))
Cc1cc(Nc2cc3ncccc3c(N[C@@H]3C[C@H]4CCC[C@@H](C3)N4C(=O)CN(C)C)n2)n[nH]1 [Example 4, 2-(Dimethylamino)-1-((1R,3s,5S)-3-((7-((5-methyl-1H-pyrazol-3-yl)amino)-1,6-naphthyridin-5-yl)amino)-9-azabicyclo[3.3.1]nonan-9-yl)ethan-1-one] | statistically significant decrease | 31.6 to 200 |  |  |  |  |  |  | Ki [1]: 0.1 to 1 nM; Ki ([7]; read-out: JAK 2 (pKi) (converted)): 0.1 to 1 nM
Cc1cc(Nc2cc3ncccc3c(N[C@@H]3C[C@H]4CC[C@@H](C3)N4S(=O)(=O)Cc3ccccc3)n2)n[nH]1 [Example 4-13] | did not exhibit a statistically significant decrease |  | B (B represents a pKi value between 9 and 10 (Ki between 1 nM and 0.1 nM)) |  |  |  |  |  | BEAS2B pIC50 [3, 11]: A (A represents a pEC50 value≥7.5 (EC50≤32 nM)); THP-1 IL4 pIC50 [4, 12]: B (B represents a pEC50 value between 6.7 and 7.5 (EC50 between 200 nM and 32 nM))
Cc1cc(Nc2cc3ncccc3c(N[C@@H]3C[C@H]4CCC[C@@H](C3)N4S(=O)(=O)CC3CC3)n2)n[nH]1 [Example 4-23] | did not exhibit a statistically significant decrease |  |  |  |  |  |  |  | BEAS2B pIC50 [3, 11]: A (A represents a pEC50 value≥7.5 (EC50≤32 nM)); THP-1 IL4 pIC50 [4, 12]: A (A represents a pEC50 value≥7.5 (EC50≤32 nM))
COCCS(=O)(=O)N1[C@@H]2CC[C@H]1C[C@H](Nc1nc(Nc3cc(C)[nH]n3)cc3ncccc13)C2 [Example 6, N^5-((1R,3s,5S)-8-((2-methoxyethyl)sulfonyl)-8-azabicyclo[3.2.1]octan-3-yl)-N^7-(5-methyl-1H-pyrazol-3-yl)-1,6-naphthyridine-5,7-diamine] | statistically significant decrease |  |  |  |  |  |  |  | 
Cc1cnc2cc(Nc3cc(C)[nH]n3)nc(N[C@@H]3C[C@H]4CC[C@@H](C3)N4CCC#N)c2c1 [Example 6-1] |  |  | B (B represents a pKi value between 9 and 10 (Ki between 1 nM and 0.1 nM)) | C (C represents a pKi value between 7 and 9 (Ki between 100 nM and 1 nM)) | B (B represents a pKi value between 9 and 10 (Ki between 1 nM and 0.1 nM)) | B (B represents a pKi value between 9 and 10 (Ki between 1 nM and 0.1 nM)) | A (A represents a pEC50 value≥7.5 (EC50≤32 nM)) | A (A represents a pEC50 value≥7.5 (EC50≤32 nM)) | 
Cc1cnc2cc(Nc3cc(C)[nH]n3)nc(N[C@@H]3C[C@H]4CC[C@@H](C3)N4S(C)(=O)=O)c2c1 [Example 6-5] |  | < 31.6 |  |  |  | A (A represents a pKi value≥10 (Ki≤0.1 nM)) |  |  | Ki [1, 8]: 0.1 to 1 nM; Ki ([5]; read-out: JAK 3 (pKi) (converted)): 1 to 100 nM; Ki ([6]; read-out: Tyk 2 (pKi) (converted)): 0.1 to 1 nM; IC50 [3, 9]: < 31.6 nM
COc1cnc2cc(Nc3cc(C)[nH]n3)nc(N[C@@H]3C[C@H]4CC[C@@H](C3)N4S(=O)(=O)CCC#N)c2c1 [Example 6-22] |  |  | B (B represents a pKi value between 9 and 10 (Ki between 1 nM and 0.1 nM)) | C (C represents a pKi value between 7 and 9 (Ki between 100 nM and 1 nM)) | B (B represents a pKi value between 9 and 10 (Ki between 1 nM and 0.1 nM)) | B (B represents a pKi value between 9 and 10 (Ki between 1 nM and 0.1 nM)) | B (B represents a pEC50 value between 6.7 and 7.5 (EC50 between 200 nM and 32 nM)) |  | 
COC(=O)c1cnc2cc(Nc3cc(C)[nH]n3)nc(N[C@@H]3C[C@H]4CCC[C@@H](C3)N4CCC#N)c2c1 [Example 6-47] |  |  | A (A represents a pKi value≥10 (Ki≤0.1 nM)) | B (B represents a pKi value between 9 and 10 (Ki between 1 nM and 0.1 nM)) | B (B represents a pKi value between 9 and 10 (Ki between 1 nM and 0.1 nM)) | A (A represents a pKi value≥10 (Ki≤0.1 nM)) | A (A represents a pEC50 value≥7.5 (EC50≤32 nM)) | A (A represents a pEC50 value≥7.5 (EC50≤32 nM)) | 
Cc1cc(Nc2nc(N[C@@H]3C[C@H]4CCC[C@@H](C3)N4S(=O)(=O)c3ccccc3)c3cccnc3c2F)n[nH]1 [Example 8-11] |  |  | B (B represents a pKi value between 9 and 10 (Ki between 1 nM and 0.1 nM)) | C (C represents a pKi value between 7 and 9 (Ki between 100 nM and 1 nM)) | C (C represents a pKi value between 7 and 9 (Ki between 100 nM and 1 nM)) | B (B represents a pKi value between 9 and 10 (Ki between 1 nM and 0.1 nM)) | A (A represents a pEC50 value≥7.5 (EC50≤32 nM)) | B (B represents a pEC50 value between 6.7 and 7.5 (EC50 between 200 nM and 32 nM)) | 
Cc1cc(Nc2nc(NC3CC4CCCC(C3)N4C(=O)C(C)O)c3cccnc3c2F)n[nH]1 (stereo not shown) [Example 8-16] |  |  | B (B represents a pKi value between 9 and 10 (Ki between 1 nM and 0.1 nM)) | C (C represents a pKi value between 7 and 9 (Ki between 100 nM and 1 nM)) | C (C represents a pKi value between 7 and 9 (Ki between 100 nM and 1 nM)) | B (B represents a pKi value between 9 and 10 (Ki between 1 nM and 0.1 nM)) |  | B (B represents a pEC50 value between 6.7 and 7.5 (EC50 between 200 nM and 32 nM)) | 
Cc1cc(Nc2cc3ncccc3c(N[C@@H]3C[C@H]4CCC[C@@H](C3)N4S(=O)(=O)N3CC(C#N)C3)n2)n[nH]1 [Example 11, 1-(((1R,3s,5S)-3-((7-((5-methyl-1H-pyrazol-3-yl)amino)-1,6-naphthyridin-5-yl)amino)-9-azabicyclo[3.3.1]nonan-9-yl)sulfonyl)azetidine-3-carbonitrile] | did not exhibit a statistically significant decrease | 31.6 to 200 |  |  |  |  |  |  | IC50 [3, 9]: < 31.6 nM
